Measured values: patent US20260117203A1, “MUTANT KETOREDUCTASE WITH INCREASED KETOREDUCTASE ACTIVITY AS WELL AS METHODS AND USES INVOLVING THE SAME” (Hoffmann-La Roche Inc., priority 2023, published 2026)
Residue numbers refer to the chain shown, from its start.

Key:
Assay type in all cases: biochemical
[1] = target: T1, Sporidiobolus salmonicolor ketoreductase variant E00158, Trp97_Lys238_Met241_Trp242_Ser245_Met316_Met342, SEQ ID NO: 6, His-tag (Sporobolomyces salmonicolor, UniProt Q9UUN9, A238K/F97W/L241M/L316M/M242W/Q245S/T342M); assay: Kinetic characterization (app. KM, app. kcat), Table 9c, variant E00158; settings: E00158, relative to WT = 1
T1 sequence (Q9UUN9 1-343 F97W/A238K/L241M/M242W/Q245S/L316M/T342M): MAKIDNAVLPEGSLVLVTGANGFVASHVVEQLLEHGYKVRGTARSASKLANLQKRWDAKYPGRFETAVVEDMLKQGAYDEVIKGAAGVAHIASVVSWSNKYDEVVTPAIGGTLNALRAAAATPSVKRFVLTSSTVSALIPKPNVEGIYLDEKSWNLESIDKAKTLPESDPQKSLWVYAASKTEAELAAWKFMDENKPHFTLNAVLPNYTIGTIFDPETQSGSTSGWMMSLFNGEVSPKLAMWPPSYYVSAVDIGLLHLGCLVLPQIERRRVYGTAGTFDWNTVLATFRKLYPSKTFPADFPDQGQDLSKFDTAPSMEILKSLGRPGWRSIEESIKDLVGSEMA

[2] = target: T2, Sporidiobolus salmonicolor ketoreductase variant E00174, Trp97_Lys238_Met241_Trp242_Ser245_Gly246_Met316_Met342, SEQ ID NO: 7, His-tag (Sporobolomyces salmonicolor, UniProt Q9UUN9, A238K/F97W/L241M/L316M/M242W/Q245S/T342M/Y246G); assay: Kinetic characterization (app. KM, app. kcat), Table 9c, variant E00174
T2 sequence (Q9UUN9 1-343 F97W/A238K/L241M/M242W/Q245S/Y246G/L316M/T342M): T1 sequence (Q9UUN9 1-343 F97W/A238K/L241M/M242W/Q245S/L316M/T342M) with Y246G

[3] = target: T3, Sporidiobolus salmonicolor ketoreductase variant E00184, Trp97_Ala224_Lys238_Met241_Trp242_Ser245_Gly246_Met316_Met342, SEQ ID NO: 8, His-tag (Sporobolomyces salmonicolor, UniProt Q9UUN9, A238K/F97W/L241M/L316M/M242W/Q245S/S224A/T342M/Y246G); assay: Kinetic characterization (app. KM, app. kcat), Table 9c, variant E00184 (first line); settings: relative to WT = 1
T3 sequence (Q9UUN9 1-343 F97W/S224A/A238K/L241M/M242W/Q245S/Y246G/L316M/T342M): T1 sequence (Q9UUN9 1-343 F97W/A238K/L241M/M242W/Q245S/L316M/T342M) with S224A, Y246G

[4] = target: T4, Sporidiobolus salmonicolor ketoreductase, wild type (WT), UniProt Q9UUN9, SEQ ID NO: 1 (Sporobolomyces salmonicolor, UniProt Q9UUN9); assay: Kinetic characterization (app. KM, app. kcat), Table 9c, wild type; settings: reference = 1
T4 sequence (Q9UUN9 1-343): T1 sequence (Q9UUN9 1-343 F97W/A238K/L241M/M242W/Q245S/L316M/T342M) with W97F, K238A, M241L, W242M, S245Q, M316L, M342T

[5] = target: T5, Sporidiobolus salmonicolor ketoreductase variant E00144, Trp97_Met241_Trp242_Ser245_Met316_Met342, SEQ ID NO: 3, His-tag (Sporobolomyces salmonicolor, UniProt Q9UUN9, F97W/L241M/L316M/M242W/Q245S/T342M); assay: Kinetic characterization (app. KM, app. kcat), Table 9c, variant E00144; settings: E00144, relative to WT = 1
T5 sequence (Q9UUN9 1-343 F97W/L241M/M242W/Q245S/L316M/T342M): T1 sequence (Q9UUN9 1-343 F97W/A238K/L241M/M242W/Q245S/L316M/T342M) with K238A

[6] = target: T6, Sporidiobolus salmonicolor ketoreductase variant E00184 (second line so labelled); in Table 9b W97 V134 A224 K238 M241 W242 S245 G246 M316 M342, the mutations of (Sporobolomyces salmonicolor, UniProt Q9UUN9, A238K/F97W/L241M/L316M/M242W/Q245S/S224A/T134V/T342M/Y246G); assay: Kinetic characterization (app. KM, app. kcat), Table 9c, variant E00184 (second line); settings: relative to WT = 1
T6 construct: second row labelled E00184, evidently E00185
T6 sequence (Q9UUN9 1-343 F97W/T134V/S224A/A238K/L241M/M242W/Q245S/Y246G/L316M/T342M): T1 sequence (Q9UUN9 1-343 F97W/A238K/L241M/M242W/Q245S/L316M/T342M) with T134V, S224A, Y246G

[7] = target: T7, Sporidiobolus salmonicolor ketoreductase variant E00128, Trp97_Met241_Trp242_Ser245, SEQ ID NO: 2, His-tag (Sporobolomyces salmonicolor, UniProt Q9UUN9, F97W/L241M/M242W/Q245S); assay: Kinetic characterization (app. KM, app. kcat), Table 9c, variant E00128; settings: E00128, relative to WT = 1
T7 sequence (Q9UUN9 1-343 F97W/L241M/M242W/Q245S): T1 sequence (Q9UUN9 1-343 F97W/A238K/L241M/M242W/Q245S/L316M/T342M) with K238A, M316L, M342T

SMILES: C[C@@H]1CC(=O)c2ncnc(N3CCN(C(=O)OC(C)(C)C)CC3)c21 [ketone of formula Ib]
- rel. kcat [1]: 31
- rel. kcat ([2]; relative to WT = 1, substrate saturation not reached): 94
- app. kcat ([2]; substrate saturation not reached): 45.8 ± 2.4 min−^1
- rel. kcat [3]: 43
- rel. kcat [4]: 1
- rel. kcat [5]: 13
- rel. kcat [6]: 64
- rel. kcat [7]: 12
